According to patent US8785692B2, “Substituted phenylamidines and the use thereof as fungicides” (priority 2007, dated 2014):
Like-named read-outs stand apart in the source and are kept apart here.

Assays:
[1] = logP (neutral / acidic, pH 2.3)
Sphaerotheca fuliginea = assay: Sphaerotheca test (cucumber) / protective; format: in vivo; conditions: Podosphaera fuliginea, 168 h, read-out: efficacy
Method: Sphaerotheca Test (Cucumber)/Protective
Solvent: 49 parts by weight of N,N-dimethylformamide
Emulsifier: 1 part by weight of alkylaryl polyglycol ether
To produce a suitable preparation of active compound, 1 part by weight of active compound is mixed with the stated amounts of solvent and emulsifier, and the concentrate is diluted with water to the desired concentration.
To test for protective activity, young cucumber plants are sprayed with the active compound preparation at the stated application rate. 1 day after the treatment, the plants are inoculated with a spore suspension of Sphaerotheca fuliginea. The plants are then placed in a greenhouse at 70% relative atmospheric humidity and a temperature of 23° C.
Evaluation is carried out 7 days after the inoculation. 0% means an efficacy which corresponds to that of the control, whereas an efficacy of 100% means that no infection is observed.

[2] = cucumber, protective, 500 ppm active compound, evaluation 7 days after inoculation

Compound	logP ([1]; pH 2.3)	logP [1]	pest or weed control at 500 ppm (Sphaerotheca fuliginea; [2]) [%]	pest or weed control at 500 ppm (Sphaerotheca fuliginea) [%]	logP acidic ([1]; acidic)	logP neutral ([1]; neutral)
Cc1cc(C=NOC(C)C)c(C)cc1N [4-(Isopropoxyiminomethyl)-2,5-dimethylaniline]	2.77					
CCN(C)C=Nc1cc(C)c(/C=N/OCC2CC2)cc1C [Compound 47, N′-(4-{(E)-[(cyclopropylmethoxy)imino]methyl}-2,5-dimethylphenyl)-N-ethyl-N-methylimidoformamide]	1.67	3.95				
CCN(C)C=Nc1cc(C)c(/C(C)=N/OCc2cccc(Oc3ccccc3)c2)cc1C [Compound 22, N′-(2,5-dimethyl-4-{(1E)-N-[(3-phenoxybenzyl)oxy]ethanimidoyl}phenyl)-N-ethyl-N-methylimidoformamide]	2.69	5.77	≥ 70			
CCN(C)C=Nc1cc(C)c(/C(C)=N/OCCc2ccc(Cl)cc2)cc1C [Compound 25, N′-(4-{(1E)-N-[2-(4-chloro-phenyl)ethoxy]ethanimidoyl}-2,5-dimethylphenyl)-N-ethyl-N-methylimidoformamide]	2.56	5.55	≥ 70			
CCN(C)C=Nc1cc(C)c(/C(C)=N/CCCC(C)(C)C)cc1C [Compound 46, N′-{4-[(1E)-N-(4,4-dimethylpentyl)ethanimidoyl]-2,5-dimethylphenyl}-N-ethyl-N-methylimido-formamide]	1.79	4.75				
CCN(C)C=Nc1cc(C)c(/C(C)=N/OCc2ccc(C(C)(C)C)cc2)cc1C [Compound 12, N′-(4-{(1E)-N-[(4-tert-butylbenzyl)oxy]ethanimidoyl}-2,5-dimethylphenyl)-N-ethyl-N-methylimidoformamide]	3.05	6.26	≥ 70			
CCN(C)C=Nc1cc(C)c(/C(C)=N/Oc2ccccc2)cc1C [Compound 11, N′-{2,5-dimethyl-4-[(1E)-N-phenoxyethanimidoyl]-phenyl}-N-ethyl-N-methylimidoformamide]	2.21		≥ 70			
CCN(C)C=Nc1cc(C)c(/C(C)=N/OCc2ccc(Cl)c(Cl)c2)cc1C [Compound 30, N′-(4-{(1E)-N-[(3,4-dichlorobenzyl)oxy]-ethanimidoyl}-2,5-dimethylphenyl)-N-ethyl-N-methylimidoformamide]	2.71	5.79		≥ 70		
CCN(C)C=Nc1cc(C)c(/C(C)=N/OCC[Si](C)(C)C)cc1C [Compound 44, N′-(2,5-dimethyl-4-{(1E)-N-[2-(trimethylsilyl)ethoxy]ethanimidoyl}phenyl)-N-ethyl-N-methylimidoformamide]	2.76	6.21				
CCN(C)C=Nc1cc(C)c(/C=N/OCc2ccc3c(c2)OCOC3)cc1C [Compound 4, N′-(4-{(E)-[(4H-1,3-benzodioxin-7-ylmethoxy)imino]methyl}-2,5-dimethylphenyl)-N-ethyl-N-methylimidoformamide]	2.02	4.71				
CCN(C)C=Nc1cc(C)c(/C=N/OC(C)(C)C)cc1C [Compound 39, N′-{4-[(E)-(tert-butoxyimino)methyl]-2,5-dimethylphenyl}-N-ethyl-N-methylimidoformamide]	2.11	4.98		≥ 70		
CC#CCO/N=C(\C)c1cc(C)c(N=CN(C)CC)cc1C [Compound 16, N′-{4-[(1E)-N-(but-2-yn-1-yloxy)ethanimidoyl]-2,5-dimethylphenyl}-N-ethyl-N-methylimidoformamide]	1.72	3.91		≥ 70		
CCN(C)C=Nc1cc(C)c(/C=N/OC(C)C)cc1C [Compound 40, N-ethyl-N′-{4-[(E)-(isopropoxyimino)methyl]-2,5-dimethylphenyl}-N-methylimidoformamide]	1.76	4.41	≥ 70			
CCN(C)C=Nc1cc(C)c(/C(C)=N/OCC(C)C)cc1C [Compound 13, N-ethyl-N′-{4-[(1E)-N-isobutoxyethanimidoyl]-2,5-dimethylphenyl}-N-methylimidoformamide]	2.22	4.98				
CCN(C)C=Nc1cc(C)c(/C=N/OCCC(C)(C)C)cc1C [Compound 48, N′-(4-{(E)-[(3,3-dimethylbutoxy)imino]methyl}-2,5-dimethylphenyl)-N-ethyl-N-methylimidoformamide]	2.3	5.89				
Cc1cc(C=NOCc2ccccc2)c(C)cc1N [4-(Benzyloxyiminomethyl)-2,5-dimethylaniline]	4.22					
Cc1cc(C=O)c(C)cc1N [4-Amino-2,5-dimethylbenzaldehyde]	1.34					
CCN(C)C=Nc1cc(C)c(/C(C)=N/OCOCCOC)cc1C [Compound 18, N′-{2,5-dimethyl-4-[(1E)-1-methyl-3,5,8-trioxa-2-azanon-1-en-1-yl]phenyl}-N-ethyl-N-methylimidoformamide]	1.43	3.05				
CCN(C)C=Nc1cc(C)c(/C(C)=N/OC/C=C/c2ccccc2)cc1C [Compound 19, N′-{2,5-dimethyl-4-[(1E)-N-{[(2E)-3-phenylprop-2-en-1-yl]oxy}ethanimidoyl]phenyl}-N-ethyl-N-methylimidoformamide]	2.32	5.2				
N-(2,5-dimethyl-4-{(E)-[1-phenylethoxy]ethanimidoyl}phenyl)-N-ethyl-N-methylimidoformamide [Compound 27]					2.39	5.09
CCN(C)C=Nc1cc(C)c(/C(C)=N/OC(C)c2ccc(Cl)cc2)cc1C (stereo not drawn) [Compound 38, N′-(4-{(1E)-N-[1-(4-chlorophenyl)ethoxy]ethanimidoyl}-2,5-dimethylphenyl)-N-ethyl-N-methylimidoformamide]	2.46	5.67				
C=CCO/N=C(\C)c1cc(C)c(N=CN(C)CC)cc1C [Compound 35, N′-{4-[(1E)-N-(allyloxy)ethanimidoyl]-2,5-dimethylphenyl}-N-ethyl-N-methylimidoformamide]	1.72	4.02				
CCN(C)C=Nc1cc(C)c(/C(C)=N/OC(C)(C)C)cc1C [Compound 9, N-ethyl-N′-{4-[(1E)-N-tert-butoxyethanimidoyl]-2,5-dimethylphenyl}-N-methylimidoformamide]	2.19	5.17				
CCN(C)C=Nc1cc(C)c(/C(C)=N/Nc2ccccc2F)cc1C [Compound 45, N-ethyl-N′-(4-{(1E)-1-[2-(2-fluorophenyl)hydrazinylidene]ethyl}-2,5-dimethylphenyl)-N-methylimidoformamide]	1.91					
CCN(C)C=Nc1cc(C)c(/C(C)=N/OC)cc1C [Compound 24, N-ethyl-N′-{4-[(1E)-N-methoxyethanimidoyl]-2,5-dimethylphenyl}-N-methylimidoformamide]	1.38	3.33				
CCN(C)C=Nc1cc(C)c(/C(C)=N/OC(C)C)cc1C [Compound 10, N-ethyl-N′-{4-[(1E)-N-isopropoxyethanimidoyl]-2,5-dimethylphenyl}-N-methylimidoformamide]	1.92	4.42				
CCO/N=C(\C)c1cc(C)c(N=CN(C)CC)cc1C [Compound 23, N-ethyl-N′-{4-[(1E)—N-ethoxyethanimidoyl]-2,5-dimethylphenyl}-N-methylimidoformamide]	1.6	3.86				
